The results in this text go back to patent publication US20260258032A1, “TYROSINE KINASE 2 INHIBITORS AND USES THEREOF” (BIOGEN MA INC., priority 2022, published 2026).

Structures can show the parent of a compound that is named as a salt.

For assay [1], the system named is Tyk2 kinase activity on STAT4. Briefly: pSTAT4 cell assay (MSD, NK92 cells). Format: cell-based. As to conditions: compounds 1 hr, stimulated 15 minutes. The procedure, abridged:
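IC50 values derive from 4-parameter logistic fits of normalized percent activity against log compound concentration. Phospho-STAT was measured by MSD with anti-STAT4 antibodies after 15 min of 30 ng/mL IL2 in serum-starved NK92 cells pretreated 1 hr with compound.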

Another assay deals with T1, JH2 domain of human Tyk2 (Homo sapiens, UniProt P29597).
T1 construct: 10×His-tagged TYK2 JH2 domain (amino acid 575-876)
T1 sequence (P29597 575-876): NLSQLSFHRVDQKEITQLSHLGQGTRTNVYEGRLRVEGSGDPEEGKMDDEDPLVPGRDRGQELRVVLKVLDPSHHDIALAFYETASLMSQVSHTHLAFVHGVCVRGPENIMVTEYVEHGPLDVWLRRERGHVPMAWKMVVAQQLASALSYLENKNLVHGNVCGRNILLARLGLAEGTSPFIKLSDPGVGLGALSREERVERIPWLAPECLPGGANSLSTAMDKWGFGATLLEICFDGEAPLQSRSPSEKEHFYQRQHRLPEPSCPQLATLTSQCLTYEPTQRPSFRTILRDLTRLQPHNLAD
Briefly: JH2 biochemical assay (TR-FRET probe displacement). Format: binding. As to conditions: JH2 biochemical assay. The procedure, abridged: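 10×His-tagged human TYK2 JH2 (aa 575-876, 2 nM) incubated 60 min with 2 nM fluorescent probe, 0.1 nM Tb anti-His antibody and compound (10-point 3-fold series from […] top). TR-FRET 520/495 nm ratio, falling with probe displacement, normalized and fitted to a 4-parameter logistic for IC50.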
On the technique in general: In TR-FRET formats the signal depends on donor and acceptor labels being close together.

As for `CC(=O)Nc1cc2c(cn1)C1(CC1)CN2c1cc(C)cc(C2(F)CC2)n1` [Example 279, N-(1′-(6-(1-fluorocyclopropyl)-4-methylpyridin-2-yl)-1′,2′-dihydrospiro[cyclopropane-1,3′-pyrrolo[3,2-c]pyridin]-6′-yl)acetamide], the half-maximal inhibitory concentration (IC50) (usually the concentration that inhibits the measured activity by half) in assay [1] is 100 to 1000 nM; at JH2 domain of human Tyk2, 10 to 100 nM.

As to `CC(=O)Nc1cc2c(cn1)C1(CC1)CN2c1cc(C(C)(F)F)ncn1` [Example 280, N-(1′-(6-(1,1-difluoroethyl)pyrimidin-4-yl)-1′,2′-dihydrospiro[cyclopropane-1,3′-pyrrolo[3,2-c]pyridin]-6′-yl)acetamide], the IC50 in assay [1] was at least 1000 nM; at JH2 domain of human Tyk2 it was 100 to 1000 nM.

Turning to `CCOC(=O)C(F)(F)c1nc(C)cc(N2CC3(CC3)c3cnc(NC(C)=O)cc32)n1` [Example 281, Ethyl 2-(4-(6′-acetamidospiro[cyclopropane-1,3′-pyrrolo[3,2-c]pyridin]-1′(2′H)-yl)-6-methylpyrimidin-2-yl)-2,2-difluoroacetate], the concentration for half-maximal inhibition (IC50) in assay [1] is at least 1000 nM; at JH2 domain of human Tyk2, 100 to 1000 nM.

In the case of `CC(=O)Nc1cc2c(cn1)C1(CC1)CN2c1cc(C(C)(F)F)nc(Cl)n1` [Example 282, N-(1′-(2-chloro-6-(1,1-difluoroethyl)pyrimidin-4-yl)-1′,2′-dihydrospiro[cyclopropane-1,3′-pyrrolo[3,2-c]pyridin]-6′-yl)acetamide], the IC50 in assay [1] was at least 1000 nM; at JH2 domain of human Tyk2 it was 100 to 1000 nM.

For the compound `CC(=O)Nc1cc2c(cn1)C1(CC1)CN2c1cc(Cl)nc(C(C)(C)F)n1` [Example 283, N-(1′-(6-chloro-2-(2-fluoropropan-2-yl)pyrimidin-4-yl)-1′,2′-dihydrospiro[cyclopropane-1,3′-pyrrolo[3,2-c]pyridin]-6′-yl)acetamide], the half-inhibitory concentration (IC50) was 100 to 1000 nM in assay [1] and at most 10 nM on JH2 domain of human Tyk2.

As to `CC(=O)Nc1cc2c(cn1)C1(CC1)CN2c1cc(NC2CC2)nc(C(C)(F)F)n1` [Example 284, N-(1′-(6-(cyclopropylamino)-2-(1,1-difluoroethyl)pyrimidin-4-yl)-1′,2′-dihydrospiro[cyclopropane-1,3′-pyrrolo[3,2-c]pyridin]-6′-yl)acetamide trifluoroacetate], the IC50 in assay [1] was 10 to 100 nM; on JH2 domain of human Tyk2 it was at most 10 nM.

As for `CC(=O)Nc1cc2c(cn1)C1(CC1)CN2c1cc(NC2COC2)nc(C(C)(F)F)n1` [Example 285, N-(1′-(2-(1,1-difluoroethyl)-6-(oxetan-3-ylamino)pyrimidin-4-yl)-1′,2′-dihydrospiro[cyclopropane-1,3′-pyrrolo[3,2-c]pyridin]-6′-yl)acetamide], the concentration for half-maximal inhibition (IC50) was 10 to 100 nM in assay [1] and at most 10 nM at JH2 domain of human Tyk2.

On to `CC(=O)Nc1cc2c(cn1)C1(CC1)CN2c1cc(C)nc(OCC(C)(C)O)n1` [Example 286, N-(1′-(2-(2-hydroxy-2-methylpropoxy)-6-methylpyrimidin-4-yl)-1′,2′-dihydrospiro[cyclopropane-1,3′-pyrrolo[3,2-c]pyridin]-6′-yl)acetamide], for which the IC50 in assay [1] was 100 to 1000 nM; on JH2 domain of human Tyk2, 10 to 100 nM.

Regarding `COCCOc1nc(N2CC3(CC3)c3cnc(NC(C)=O)cc32)cc(C(C)(F)F)n1` [Example 287, N-(1′-(6-(1,1-difluoroethyl)-2-(2-methoxyethoxy)pyrimidin-4-yl)-1′,2′-dihydrospiro[cyclopropane-1,3′-pyrrolo[3,2-c]pyridin]-6′-yl)acetamide], the IC50 in assay [1] is 100 to 1000 nM; at JH2 domain of human Tyk2, at most 10 nM.

Consider `CC(=O)Nc1cc2c(cn1)C1(CC1)CN2c1cc(C)nc(OCCF)n1` [Example 288, N-(1′-(2-(2-fluoroethoxy)-6-methylpyrimidin-4-yl)-1′,2′-dihydrospiro[cyclopropane-1,3′-pyrrolo[3,2-c]pyridin]-6′-yl)acetamide], for which the values for the half-maximal inhibitory concentration (IC50) (in assay [1]; at JH2 domain of human Tyk2) were 100 to 1000 nM and at most 10 nM, respectively.

Consider `CC(=O)Nc1cc2c(cn1)C1(CC1)CN2c1cc(C)nc(C(F)(F)CO)n1` [Example 289, N-(1′-(2-(1,1-difluoro-2-hydroxyethyl)-6-methylpyrimidin-4-yl)-1′,2′-dihydrospiro[cyclopropane-1,3′-pyrrolo[3,2-c]pyridin]-6′-yl)acetamide], for which the figures for the IC50 (in assay [1]; at JH2 domain of human Tyk2) were 10 to 100 nM and at most 10 nM, respectively.

Turning to `CC(=O)Nc1cc2c(cn1)C1(CC1)CN2c1cc(C)cc(C(F)(F)CO)n1` [Example 290, N-(1′-(6-(1,1-difluoro-2-hydroxyethyl)-4-methylpyridin-2-yl)-1′,2′-dihydrospiro[cyclopropane-1,3′-pyrrolo[3,2-c]pyridin]-6′-yl)acetamide], the concentration for half-maximal inhibition (IC50) in assay [1] was 10 to 100 nM; at JH2 domain of human Tyk2, at most 10 nM.

With `CCOC(=O)c1cc(N2CC3(CC3)c3cnc(NC(C)=O)cc32)nc(C(C)(F)F)n1` [Example 291, Ethyl 6-(6′-acetamidospiro[cyclopropane-1,3′-pyrrolo[3,2-c]pyridin]-1′(2′H)-yl)-2-(1,1-difluoroethyl)pyrimidine-4-carboxylate], the IC50 in assay [1] is 100 to 1000 nM; at JH2 domain of human Tyk2, at most 10 nM.

For the compound `CC(=O)Nc1cc2c(cn1)C1(CC1)CN2c1cc(C(C)O)nc(C(C)(F)F)n1` (stereo not drawn) [Example 293, N-(1′-(2-(1,1-difluoroethyl)-6-(1-hydroxyethyl)pyrimidin-4-yl)-1′,2′-dihydrospiro[cyclopropane-1,3′-pyrrolo[3,2-c]pyridin]-6′-yl)acetamide], the IC50 in assay [1] is 100 to 1000 nM; on JH2 domain of human Tyk2, at most 10 nM.

In the case of `CC(=O)Nc1cc2c(cn1)C1(CC1)CN2c1cc(C(=O)O)nc(C(C)(F)F)n1` [Example 294, 6-(6′-acetamidospiro[cyclopropane-1,3′-pyrrolo[3,2-c]pyridin]-1′(2′H)-yl)-2-(1,1-difluoroethyl)pyrimidine-4-carboxylic acid], the IC50 in assay [1] is at least 1000 nM; on JH2 domain of human Tyk2, 10 to 100 nM.

For the compound `CC(=O)Nc1cc2c(cn1)C1(CC1)CN2c1cc(C2=COCC2)nc(C(C)(F)F)n1` [Example 296, N-(1′-(2-(1,1-difluoroethyl)-6-(4,5-dihydrofuran-3-yl)pyrimidin-4-yl)-1′,2′-dihydrospiro[cyclopropane-1,3′-pyrrolo[3,2-c]pyridin]-6′-yl)acetamide trifluoroacetate], the IC50 is 100 to 1000 nM in assay [1] and at most 10 nM at JH2 domain of human Tyk2.

Take `CC(=O)Nc1cc2c(cn1)C1(CC1)CN2c1cc(C2CCOC2)nc(C(C)(F)F)n1` (stereo not drawn) [Example 297, N-(1′-(2-(1,1-difluoroethyl)-6-(tetrahydrofuran-3-yl)pyrimidin-4-yl)-1′,2′-dihydrospiro[cyclopropane-1,3′-pyrrolo[3,2-c]pyridin]-6′-yl)acetamide trifluoroacetate]: the IC50 in assay [1] is 100 to 1000 nM; at JH2 domain of human Tyk2, at most 10 nM.

With `CNCc1cc(N2CC3(CC3)c3cnc(NC(C)=O)cc32)nc(C(C)(F)F)n1` [Example 298, N-(1′-(2-(1,1-difluoroethyl)-6-((methylamino)methyl)pyrimidin-4-yl)-1′,2′-dihydrospiro[cyclopropane-1,3′-pyrrolo[3,2-c]pyridin]-6′-yl)acetamide], the IC50 is at least 1000 nM in assay [1] and 10 to 100 nM on JH2 domain of human Tyk2.

As to `CC(=O)Nc1cc2c(cn1)C1(CC1)CN2c1cc(CN2CCC2)nc(C(C)(F)F)n1` [Example 299, N-(1′-(6-(azetidin-1-ylmethyl)-2-(1,1-difluoroethyl)pyrimidin-4-yl)-1′,2′-dihydrospiro[cyclopropane-1,3′-pyrrolo[3,2-c]pyridin]-6′-yl)acetamide], the IC50 fell in the range of 100 to 1000 nM in assay [1] and 10 to 100 nM on JH2 domain of human Tyk2.

Take `CC(=O)Nc1cc2c(cn1)C1(CC1)CN2c1cc(-c2ncn(C)n2)nc(C(C)(F)F)n1` [Example 300, N-(1′-(2-(1,1-difluoroethyl)-6-(1-methyl-1H-1,2,4-triazol-3-yl)pyrimidin-4-yl)-1′,2′-dihydrospiro[cyclopropane-1,3′-pyrrolo[3,2-c]pyridin]-6′-yl)acetamide]: the half-maximal inhibitory concentration (IC50) in assay [1] is 100 to 1000 nM; on JH2 domain of human Tyk2, at most 10 nM.

In the case of `CCn1ncc(-c2cc(N3CC4(CC4)c4cnc(NC(C)=O)cc43)nc(C(C)(F)F)n2)c1F` [Example 301, N-(1′-(2-(1,1-difluoroethyl)-6-(1-ethyl-5-fluoro-1H-pyrazol-4-yl)pyrimidin-4-yl)-1′,2′-dihydrospiro[cyclopropane-1,3′-pyrrolo[3,2-c]pyridin]-6′-yl)acetamide], the half-maximal inhibitory concentration (IC50) in assay [1] is 10 to 100 nM; at JH2 domain of human Tyk2, at most 10 nM.

Regarding `CC(=O)Nc1cc2c(cn1)C1(CC1)CN2c1cc(CC#N)nc(C(C)(F)F)n1` [Example 303, N-(1′-(6-(cyanomethyl)-2-(1,1-difluoroethyl)pyrimidin-4-yl)-1′,2′-dihydrospiro[cyclopropane-1,3′-pyrrolo[3,2-c]pyridin]-6′-yl)acetamide], the results for the IC50 (in assay [1]; on JH2 domain of human Tyk2) were at least 1000 nM and 10 to 100 nM, respectively.

For `CCC(F)(F)c1nc(C)cc(N2CC3(CC3)c3cnc(NC(C)=O)cc32)n1` [Example 304, N-(1′-(2-(1,1-difluoropropyl)-6-methylpyrimidin-4-yl)-1′,2′-dihydrospiro[cyclopropane-1,3′-pyrrolo[3,2-c]pyridin]-6′-yl)acetamide trifluoroacetate], the IC50 was 10 to 100 nM in assay [1] and at most 10 nM at JH2 domain of human Tyk2.

Take `CC(=O)Nc1cc2c(cn1)C1(CC1)CN2c1cc(F)nc(C(C)(F)F)n1` [Example 305, N-(1′-(2-(1,1-difluoroethyl)-6-fluoropyrimidin-4-yl)-1′,2′-dihydrospiro[cyclopropane-1,3′-pyrrolo[3,2-c]pyridin]-6′-yl)acetamide trifluoroacetate]: the IC50 in assay [1] lay within 100 to 1000 nM; on JH2 domain of human Tyk2, 10 to 100 nM.
